Assay results as given in patent US20130078194A1, “COMPOSITIONS FOR DENTAL TREATMENT COMPRISING LIPOTEICHOIC ACIDS OR PARTS THEREOF LIKE MONO- OR POLYGLYCERPHOSPHATES” (LUNAMED AG, priority 2010, published 2013).
Where “and” joins values, the source holds several entries; their conditions need not be identical. Identical values can stand only once.

Tested on: Streptococcus mutans
Assay: Tooth experiment: biofilm formation of Streptococcus mutans on pre-treated human incisors (Safranin staining, phase analysis of pictures)
Type: cell-based
Conditions: for % Area covered with bacteria: single pictures (4 per tooth), 3 days S. mutans; for % Mean area covered: mean of 4 pictures
Protocol: To investigate the influence of glycerol phosphate, polyglycerol phosphate and LTA-T on the biofilm formation of Streptococcus mutans on human teeth, incisors (1/condition) were preincubated under rotating conditions (50 rpm) at 37° C. for 1 h with: • 1. 5000 μg/ml glycerol phosphate in PBS • 2. 20000 μg/ml glycerol phosphate in PBS • 3. 277 μg/ml polyglycerol phosphate (PGP1) in PBS • 4. 1106 μg/ml polyglycerol phosphate (PGP1) in PBS • 5. 25 μg/ml LTA-T in PBS • 6. PBS as control
These teeth were then washed with ultrapure H2O by repetitive dipping (3 liquid air interfaces) and incubated in a saturated suspension of Streptococcus mutans (in BHI broth, 3% sucrose) under rotating conditions (50 rpm) at 37° C. for 3 days. Each day, bacteria were fed with 1 ml of a solution of 30% sucrose in PBS to enhance biofilm formation. After incubation, the teeth were washed with ultrapure H2O, air dried for 2 h and stained with Safranin (0.5% v/v) solution. The stained teeth were air dried and photographed (see above).
Of each tooth 4 representative pictures were taken. The pictures were analyzed with SigmaPlot Software, Version 11.0 using phase analysis: The color (phase) of the bacterial biofilm was defined and % area of the chosen color on each picture was calculated.
The difference between groups was compared using the unpaired t-test.

| SMILES | adhesion of bacteria compared to control tooth (pre-treatment 277 μg/ml) | % Area covered with bacteria (pre-treatment 277 μg/ml in PBS 1 h) | % Mean area covered (pre-treatment 277 μg/ml) [%] | adhesion of bacteria to the tooth surface (pre-treatment 1106 μg/ml) | decrease of biofilm formation compared to control tooth (pre-treatment 1106 μg/ml) | % Mean area covered (pre-treatment 1106 μg/ml) [%] | adhesion of bacteria compared to control tooth (pre-treatment 5000 μg/ml) | % Area covered with bacteria (pre-treatment 5000 μg/ml in PBS 1 h) | % Mean area covered (pre-treatment 5000 μg/ml) [%] | adhesion of bacteria compared to control tooth (pre-treatment 20000 μg/ml) | % Area covered with bacteria (pre-treatment 20000 μg/ml in PBS 1 h) [%] | % Mean area covered (pre-treatment 20000 μg/ml) [%] |
| --- | --- | --- | --- | --- | --- | --- | --- | --- | --- | --- | --- | --- |
| O=P(O)(OC[C@H](O)COP(=O)(O)OC[C@H](O)COP(=O)(O)OC[C@H](O)CO)OC[C@@H](O)COP(=O)(O)OC[C@@H](O)CO [PGP1] | significantly reduced | 1.93% and 0.19% and 0.08% and 0.40% | 0.65 | bacteria were still able to adhere to the tooth surface | still significant | 15.16 | – | – | – | – | – | – |
| O=P(O)(O)OC(CO)CO [glycerol phosphate, beta glycerol phosphate] | – | – | – | – | – | – | significantly reduced | 0.00% and 0.02% | 0.00 | significantly reduced | 0.00 | 0.00 |
